# Measured values from paper PMC4578769, “Development of a Fluorescence-based Trypanosoma cruzi CYP51 Inhibition Assay for Effective Compound Triaging in Drug Discovery Programmes for Chagas Disease” (PLoS Neglected Tropical Diseases, 2015).
# Like-named read-outs stand apart in the source and are kept apart here.
# Assays:
# [1] = target: T1, T. cruzi CYP51 (Tulahuen strain) (Trypanosoma cruzi, UniProt Q7Z1V1); assay: biochemical; assay type: biochemical; conditions: for inhibition of T. cruzi CYP51 (in words): known CYP450 inhibitors
# T1 construct: ompA leader (N); host or cells: E. coli JM109 (membrane fraction, bactosomes)
# Description: E. coli membrane fractions containing the T. cruzi CYP51 (Tulahuen strain) (Bactosomes) were provided by Cypex Ltd.
# For each concentration of test compound the rate of fluorescence units per minute was calculated as a percentage of the average rate of the solvent only control wells.
# The percentage of solvent control values was then plotted against the concentration range. Using the following 4 parameter fit equation, an IC50 value can be determined.
# y=Range/1+(x/IC50)^s+Background
# With kinetic parameters established, a microtitre-based assay to measure inhibition of recombinantly expressed T. cruzi CYP51 by test compounds was then implemented. […] Incubations containing 37 pmoles/mL of T. cruzi CYP51 in bactosomes, 100 μM BOMCC, 10, 3.3, 1.0, 0.33, 0.1, 0.033 or 0.01 μM test compound (2% v/v solvent) in 50 mM potassium phosphate buffer (pH 7.4), were pre-incubated at 37°C for 5 minutes. Upon addition of NADPH regenerating system (7.8 mg [[…]] glucose-6-phosphate, 1.7 mg [[…]] NADP, 6 units/mL glucose-6-phosphate dehydrogenase in 2% w/v sodium bicarbonate buffer) production of fluorescent metabolite CHC was measured (Exc 410 nm, Em 460 nm) at 1 minute intervals over a 10 minute period. Rates of metabolite production per minute were compared to uninhibited controls and plotted against test compound concentration to obtain an IC50.
# [2] = test system: T. cruzi; conditions: cited from earlier work; for re-emergence of parasitaemia once dosing has been completed: clinical trial, patients
# T1 sequence (Q7Z1V1 whole entry): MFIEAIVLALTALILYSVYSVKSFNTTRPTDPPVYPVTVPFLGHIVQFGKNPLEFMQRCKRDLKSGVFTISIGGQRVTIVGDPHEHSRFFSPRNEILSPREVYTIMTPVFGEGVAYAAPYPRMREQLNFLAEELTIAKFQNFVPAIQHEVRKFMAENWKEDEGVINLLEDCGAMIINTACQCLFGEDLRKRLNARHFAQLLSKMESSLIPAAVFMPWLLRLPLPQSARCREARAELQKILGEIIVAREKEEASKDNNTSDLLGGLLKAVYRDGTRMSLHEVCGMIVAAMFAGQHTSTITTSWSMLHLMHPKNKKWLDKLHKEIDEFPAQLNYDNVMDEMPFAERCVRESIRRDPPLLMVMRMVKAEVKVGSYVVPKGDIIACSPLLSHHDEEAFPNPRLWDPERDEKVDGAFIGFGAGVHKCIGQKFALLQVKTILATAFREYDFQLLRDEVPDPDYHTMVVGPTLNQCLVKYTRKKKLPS
SMILES,IC50 [1],inhibition of T. cruzi CYP51 (in words) [1],also measured
Cc1nc2c([nH]1)c(=O)n(C)c(=O)n2Cc1ccco1 [Furafylline],> 8 µM,did not appear to inhibit,–
CCC(C)n1ncn(-c2ccc(N3CCN(c4ccc(OCC5COC(Cn6cncn6)(c6ccc(Cl)cc6Cl)O5)cc4)CC3)cc2)c1=O (centres unmarked) [Itraconazole],–,–,curative activity in humans with chronic Chagas disease [2]: not demonstrated significant curative activity
CC(=O)N1CCN(c2ccc(OCC3COC(Cn4ccnc4)(c4ccc(Cl)cc4Cl)O3)cc2)CC1 (centres unmarked) [Ketoconazole],–,–,curative activity in humans with chronic Chagas disease [2]: not demonstrated significant curative activity
Cn1cc[nH]c1=S [Methimazole],> 8 µM,–,–
Clc1ccc(COC(Cn2ccnc2)c2ccc(Cl)cc2Cl)c(Cl)c1 (centres unmarked) [Miconazole],0.057 µM,–,–
CC[C@@H]([C@H](C)O)n1ncn(-c2ccc(N3CCN(c4ccc(OC[C@@H]5CO[C@@](Cn6cncn6)(c6ccc(F)cc6F)C5)cc4)CC3)cc2)c1=O [Posaconazole],–,–,re-emergence of parasitaemia once dosing has been completed [2]: re-emergence of parasitaemia in two thirds of patients
C=C[C@H]1C[N@@]2CC[C@H]1C[C@@H]2[C@@H](O)c1ccnc2ccc(OC)cc12 [Quinidine],> 8 µM,did not appear to inhibit,–
Nc1ccc(S(=O)(=O)Nc2ccnn2-c2ccccc2)cc1 [Sulphaphenazole],–,did not appear to inhibit,"IC50 ([1]; read-out: IC50 (μM), n = 3, 37 pmoles/mL T. cruzi CYP51 in bactosomes, 100 μM BOMCC, pH 7.4, 37°C, enzyme concentration defines minimum IC50 of approximately 0.02 μM): > 8 µM"
Clc1ccccc1CN1CCc2sccc2C1 [Ticlopidine],> 8 µM,did not appear to inhibit,–
C[C@@H](c1nc(-c2ccc(C#N)cc2)cs1)[C@](O)(Cn1cncn1)c1ccc(F)cc1F [ravuconazole],–,–,re-emergence of parasitaemia once dosing has been completed [2]: re-emergence of parasitaemia in two thirds of patients
